According to patent US11932645B2, “Substituted pyrazolo[1,5-a]pyrimidines and their use in the treatment of medical disorders” (Bial—R&D Investments, S.A., priority 2014, dated 2024):

How the values were obtained:
[1] = Compound solubility in water; assay type: physicochemical
[2] = target: T1, glucocerebrosidase (Gcase) (Homo sapiens, UniProt P04062); experiment: Glucocerebrosidase (Gcase) activation assay, 4-methylumbelliferyl-beta-D-glucopyranoside substrate, with saposin C; assay type: biochemical; settings: 10 nM GCase, 100 nM saposin C, pH 4.7
T1 sequence (P04062 40-536): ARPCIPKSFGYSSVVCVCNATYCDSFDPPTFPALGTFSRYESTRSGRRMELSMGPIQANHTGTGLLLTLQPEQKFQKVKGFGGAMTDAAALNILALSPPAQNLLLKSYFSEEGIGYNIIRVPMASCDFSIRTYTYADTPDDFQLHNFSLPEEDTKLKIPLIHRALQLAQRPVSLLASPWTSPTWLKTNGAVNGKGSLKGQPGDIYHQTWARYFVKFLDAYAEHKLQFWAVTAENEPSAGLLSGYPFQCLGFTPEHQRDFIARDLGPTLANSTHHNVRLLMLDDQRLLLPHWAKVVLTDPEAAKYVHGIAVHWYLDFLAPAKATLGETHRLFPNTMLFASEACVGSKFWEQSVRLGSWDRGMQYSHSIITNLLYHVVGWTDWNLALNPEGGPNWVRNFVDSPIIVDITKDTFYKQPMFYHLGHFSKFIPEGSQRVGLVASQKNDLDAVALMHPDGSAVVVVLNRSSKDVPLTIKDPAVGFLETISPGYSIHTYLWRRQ
Method: The ability of exemplary compounds to activate glucocerebrosidase (Gcase) was measured.
A 484 μL aliquot of a 1.0 mg/mL solution of phosphatidylserine (PS) (Sigma P7769) in chloroform was evaporated under a stream of nitrogen for 1 hour. The lipid film was dissolved over 4 minutes of vigorous vortexing in 40 mL of 176 mM K2HPO4/50 mM citric acid (pH 4.7) containing 7.5 μL of triton X-100, resulting in a mixed micellar preparation with a composition of 0.32 mM triton and 0.37 mol % PS. 4-Methylumbelliferyl-beta-D-glucopyranoside (ACROS-337025000) was dissolved in the micellar solution to a final concentration of 2 mM for use as the reaction substrate.
Test compounds were diluted to the desired concentrations with dimethylsulfoxide (DMSO) from 10 mM stocks, and 0.41 μL of the DMSO compound mixture was added to 100 μL of micellar solution containing 10 nM GCase and 100 nM saposin C (Enzo ALX-201-262-C050). Pre-incubation was allowed to occur for 30 minutes at room temperature, after which the reaction was initiated by combining 25 μL of substrate solution with 25 μL of compound/GCase/saposin mixture. The reaction proceeded for 15 minutes at room temperature and was stopped by adding 150 μL of 1M glycine, pH 12.5. The endpoint of the reaction was monitored by measuring fluorescence intensity (excitation: 365 nm; emission: 440 nm) on a SpectraMax i3 instrument (Molecular Devices). Test compounds were screened at 1.0 and 0.1 μM final concentration, and subsequent 8-point dose response curves were obtained using 3-fold dilutions from a maximum final concentration of 5 μM.
For experiments in which the test compound was used at a concentration of 1.0 μM, the symbol “+” indicates less than 30% Gcase activation; the symbol “++” indicates Gcase activation in the range of 30% up to 60%; and the symbol “+++” indicates Gcase activation greater than 60%. For experiments in which the test compound was used at a concentration of 0.1 μM, the symbol “*” indicates less than 10% Gcase activation; the symbol “**” indicates Gcase activation in the range of 10% up to 20%; and the symbol “***” indicates greater than 20% Gcase activation.

Row | SMILES | Compound Solubility in Water [1] | Percent Gcase Activation 0.1 μM Test Compound [2] | Percent Gcase Activation 1 μM Test Compound [2]
1 | Cc1cc(C)n2ncc(C(=O)Nc3ccc(-c4ccc[nH]4)cc3)c2n1 [III-57] | <1.5 µg/mL | ** (Gcase activation in the range of 10% up to 20%) | + (less than 30% Gcase activation)
2 | Cc1cc(C)n2ncc(C(=O)Nc3ccc(Cl)c(C(C)Oc4cccnc4)c3)c2n1 (centres unmarked) [III-75] |  | * (less than 10% Gcase activation) | +++ (Gcase activation greater than 60%)
3 | Cc1cc(C)n2ncc(C(=O)Nc3ccc(-c4ccc[nH]4)cc3)c2n1 [III-76] | 0.01 µg/mL | ** (Gcase activation in the range of 10% up to 20%) | ++ (Gcase activation in the range of 30% up to 60%)
4 | C#Cc1ccc(NC(=O)c2cnn3c(C)cc(NC)nc23)cc1 [III-77] |  | *** (greater than 20% Gcase activation) | +++ (Gcase activation greater than 60%)
5 | C#Cc1ccc(NC(=O)c2cnn3c(NC)cc(C)nc23)cc1 [III-78] |  | ** (Gcase activation in the range of 10% up to 20%) | + (less than 30% Gcase activation)
6 | Cc1cc(C)n2ncc(C(=O)NC3CCc4ccccc43)c2n1 (centres unmarked) [III-79] |  | ** (Gcase activation in the range of 10% up to 20%) | 
7 | C#Cc1ccc(NC(=O)c2cnn3c(C)cc(C)nc23)cc1 [IV-1] |  | ** (Gcase activation in the range of 10% up to 20%) | ++ (Gcase activation in the range of 30% up to 60%)
8 | Cc1cc(C)n2ncc(C(=O)Nc3ccc(C#CCN(C)C)cc3)c2n1 [IV-2] |  | * (less than 10% Gcase activation) | + (less than 30% Gcase activation)
9 | Cc1cc(C)n2ncc(C(=O)Nc3ccc(N4CCCCC4)cc3)c2n1 [IV-3] |  | * (less than 10% Gcase activation) | + (less than 30% Gcase activation)
10 | Cc1cc(C)n2ncc(C(=O)Nc3ccc4c(c3)OCO4)c2n1 [IV-4] |  | * (less than 10% Gcase activation) | ++ (Gcase activation in the range of 30% up to 60%)
11 | Cc1cc(C)n2ncc(C(=O)Nc3ccc4c(c3)CCC4)c2n1 [IV-5] |  | ** (Gcase activation in the range of 10% up to 20%) | +++ (Gcase activation greater than 60%)
